# Measurements: ChEMBL document CHEMBL1201862, “PubChem BioAssay data set” (2004)
# Active and inactive are the calls of the source.
# Legend:
# Cytochrome P450 2C19 = Cytochrome P450 2C19 (Homo sapiens, UniProt P33261); experiment: Cytochrome panel assay with activity outcomes. Panel member name: p450-cyp2c19 Compounds with AC50 equal or less than 10 uM are considered active; type: functional; conditions: read-out: AC50
# Cytochrome P450 1A2 = biological target: T1, Cytochrome P450 1A2 (Homo sapiens, UniProt P05177);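 also: PubChem cytochrome P450 panel assay, CYP1A2 panel member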
# T1 sequence (P05177 whole entry): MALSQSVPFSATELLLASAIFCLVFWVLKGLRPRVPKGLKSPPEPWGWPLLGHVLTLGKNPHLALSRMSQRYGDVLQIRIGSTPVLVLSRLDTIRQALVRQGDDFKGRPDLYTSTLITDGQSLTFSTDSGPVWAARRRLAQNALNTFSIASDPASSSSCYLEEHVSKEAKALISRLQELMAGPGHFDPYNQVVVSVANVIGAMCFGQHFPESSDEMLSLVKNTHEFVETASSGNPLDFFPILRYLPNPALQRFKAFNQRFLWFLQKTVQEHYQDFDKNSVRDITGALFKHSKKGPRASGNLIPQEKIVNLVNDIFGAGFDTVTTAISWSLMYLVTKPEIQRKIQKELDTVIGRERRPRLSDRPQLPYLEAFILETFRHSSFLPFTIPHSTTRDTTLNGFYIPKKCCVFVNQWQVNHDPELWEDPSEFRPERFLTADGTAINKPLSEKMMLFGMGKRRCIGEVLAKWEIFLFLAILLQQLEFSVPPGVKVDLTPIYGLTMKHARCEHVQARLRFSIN
# Cytochrome P450 2D6 = Cytochrome P450 2D6 (Homo sapiens, UniProt P10635);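 also: CYP2D6 member of a cytochrome P450 panel assay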
# Sequence of Cytochrome P450 2D6 (P10635 whole entry): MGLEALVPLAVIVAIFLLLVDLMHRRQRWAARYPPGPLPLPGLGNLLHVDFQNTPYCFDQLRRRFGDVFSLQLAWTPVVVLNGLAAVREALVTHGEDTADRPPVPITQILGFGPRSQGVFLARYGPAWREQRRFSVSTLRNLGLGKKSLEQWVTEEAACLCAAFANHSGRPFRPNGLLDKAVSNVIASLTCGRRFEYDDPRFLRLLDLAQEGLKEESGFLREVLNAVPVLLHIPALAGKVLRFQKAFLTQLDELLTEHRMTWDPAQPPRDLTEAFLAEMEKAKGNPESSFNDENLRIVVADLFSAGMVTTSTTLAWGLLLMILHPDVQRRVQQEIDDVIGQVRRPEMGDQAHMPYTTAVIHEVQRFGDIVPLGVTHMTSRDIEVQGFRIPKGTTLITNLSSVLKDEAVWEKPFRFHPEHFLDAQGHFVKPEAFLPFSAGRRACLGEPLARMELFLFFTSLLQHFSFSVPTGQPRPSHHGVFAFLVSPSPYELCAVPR
# [1] = Luminescence Cell-Based Dose Confirmation HTS to Identify Inhibitors of Platelet Dense Granule Release. [Related pubchem assays: 1663 (Primary HTS), 1678 (Summary of Project)]; type: functional
# [2] = biological target: Luciferin 4-monooxygenase (Photinus pyralis, UniProt P08659); experiment: inhibition of purified Photinus pyralis luciferase – biochemical, luminescence, dose response (AID 1891)
# Sequence of Luciferin 4-monooxygenase (P08659 whole entry): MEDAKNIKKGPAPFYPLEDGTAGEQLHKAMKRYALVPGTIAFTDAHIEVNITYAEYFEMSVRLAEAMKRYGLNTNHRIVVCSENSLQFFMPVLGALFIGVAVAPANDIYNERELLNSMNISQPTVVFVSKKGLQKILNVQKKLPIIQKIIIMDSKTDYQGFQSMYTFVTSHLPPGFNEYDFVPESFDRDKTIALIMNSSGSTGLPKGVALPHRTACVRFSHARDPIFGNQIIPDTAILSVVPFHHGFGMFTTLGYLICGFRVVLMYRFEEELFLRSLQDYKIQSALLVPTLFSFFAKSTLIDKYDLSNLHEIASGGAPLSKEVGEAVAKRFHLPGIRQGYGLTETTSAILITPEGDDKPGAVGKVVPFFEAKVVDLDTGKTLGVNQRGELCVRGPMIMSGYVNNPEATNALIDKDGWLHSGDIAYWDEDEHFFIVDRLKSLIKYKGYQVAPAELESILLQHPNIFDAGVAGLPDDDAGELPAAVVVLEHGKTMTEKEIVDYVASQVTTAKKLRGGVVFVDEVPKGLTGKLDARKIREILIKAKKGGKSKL
# INS1 = experiment: INS-1E survival protection against cytokine death – cell-based, luminescence, retest, dose response (AID 449756); type: functional; conditions: Rattus norvegicus;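 also: cell death triggered by IL-1 beta plus TNF-alpha plus IFN-gamma mixture; protective hits raise ATP signal compared with cytokine alone wells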
# Cytochrome P450 2C9 = Cytochrome P450 2C9 (Homo sapiens, UniProt P11712)
# Sequence of Cytochrome P450 2C9 (P11712 whole entry): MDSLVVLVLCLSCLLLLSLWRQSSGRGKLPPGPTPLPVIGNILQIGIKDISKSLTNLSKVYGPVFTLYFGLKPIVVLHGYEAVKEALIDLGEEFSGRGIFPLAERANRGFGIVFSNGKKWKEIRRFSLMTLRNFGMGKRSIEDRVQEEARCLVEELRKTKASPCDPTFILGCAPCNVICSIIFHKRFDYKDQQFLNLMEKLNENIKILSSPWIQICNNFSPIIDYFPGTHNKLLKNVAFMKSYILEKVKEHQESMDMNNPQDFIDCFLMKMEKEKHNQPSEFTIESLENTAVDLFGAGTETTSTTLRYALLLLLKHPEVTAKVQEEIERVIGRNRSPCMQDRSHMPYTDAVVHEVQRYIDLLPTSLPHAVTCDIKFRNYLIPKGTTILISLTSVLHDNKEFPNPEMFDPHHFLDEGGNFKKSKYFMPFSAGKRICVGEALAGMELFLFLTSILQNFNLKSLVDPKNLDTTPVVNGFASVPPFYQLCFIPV
# Cytochrome P450 3A4 = Cytochrome P450 3A4 (Homo sapiens, UniProt P08684);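 also: CYP3A4 tested as one member of a cytochrome P450 panel screen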
# Sequence of Cytochrome P450 3A4 (P08684 whole entry): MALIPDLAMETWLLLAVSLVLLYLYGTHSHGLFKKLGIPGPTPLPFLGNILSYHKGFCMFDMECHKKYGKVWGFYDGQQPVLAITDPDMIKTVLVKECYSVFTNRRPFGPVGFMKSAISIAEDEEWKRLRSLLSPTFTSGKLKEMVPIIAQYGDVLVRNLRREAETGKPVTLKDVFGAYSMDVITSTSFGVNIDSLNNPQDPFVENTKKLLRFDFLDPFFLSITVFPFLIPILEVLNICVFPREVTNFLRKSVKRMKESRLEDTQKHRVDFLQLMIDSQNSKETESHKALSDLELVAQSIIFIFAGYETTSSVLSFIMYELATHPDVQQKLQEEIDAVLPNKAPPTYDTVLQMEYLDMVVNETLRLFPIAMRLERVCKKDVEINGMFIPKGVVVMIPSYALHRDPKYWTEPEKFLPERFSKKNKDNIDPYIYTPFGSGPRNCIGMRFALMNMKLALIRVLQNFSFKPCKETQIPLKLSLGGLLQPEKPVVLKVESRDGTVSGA
# [3] = biological target: T2, Corticotropin-releasing factor receptor 2/Corticotropin-releasing factor-binding protein (Homo sapiens, UniProt P24387+Q13324); experiment: activators of CRF receptor 2 with binding protein – uHTS hits, confirmation (AID 602473); type: functional; conditions: read-out: EC50_Mean
# T2 sequence (Q13324 whole entry): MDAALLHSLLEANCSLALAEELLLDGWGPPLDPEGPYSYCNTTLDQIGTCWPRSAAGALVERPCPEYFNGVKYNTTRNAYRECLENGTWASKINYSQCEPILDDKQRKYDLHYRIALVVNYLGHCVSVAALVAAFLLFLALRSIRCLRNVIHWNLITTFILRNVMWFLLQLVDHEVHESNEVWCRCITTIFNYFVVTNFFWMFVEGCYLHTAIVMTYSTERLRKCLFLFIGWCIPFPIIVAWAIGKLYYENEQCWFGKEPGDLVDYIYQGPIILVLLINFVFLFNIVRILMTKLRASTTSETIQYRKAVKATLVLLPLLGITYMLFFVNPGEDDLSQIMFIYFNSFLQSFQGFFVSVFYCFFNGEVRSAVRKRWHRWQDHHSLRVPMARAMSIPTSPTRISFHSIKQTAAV
# T2 sequence (P24387 whole entry): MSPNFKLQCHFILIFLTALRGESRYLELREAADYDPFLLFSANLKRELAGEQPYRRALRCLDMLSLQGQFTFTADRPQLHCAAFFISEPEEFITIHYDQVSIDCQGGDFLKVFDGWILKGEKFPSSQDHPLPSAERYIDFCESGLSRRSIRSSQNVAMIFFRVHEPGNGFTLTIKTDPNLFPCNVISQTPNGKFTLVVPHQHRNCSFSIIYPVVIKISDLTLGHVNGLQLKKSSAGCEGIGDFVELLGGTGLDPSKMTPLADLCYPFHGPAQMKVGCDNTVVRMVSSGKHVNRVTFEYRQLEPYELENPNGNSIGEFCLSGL
# [4] = biological target: T2, Corticotropin-releasing factor receptor 2/Corticotropin-releasing factor-binding protein; experiment: Dose Response confirmation of uHTS hits for small molecule antagonists of the CRF-binding protein and CRF-R2 receptor complex.; type: functional; conditions: read-out: IC50_Mean
# [5] = biological target: T3, Heat shock factor protein 1 (Mus musculus, UniProt P38532); experiment: decrease of HSF1-responsive luciferase luminescence – cell-based, NIH3T3, dose retest, confirmation (AID 2382); type: functional;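 also: NIH3T3 fibroblasts with HSF1-driven luciferase reporter stressed by proteasome inhibitor MG132; luminescence from HSF1-driven luciferase expression after 8 hours of MG132 stress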
# T3 sequence (P38532 whole entry): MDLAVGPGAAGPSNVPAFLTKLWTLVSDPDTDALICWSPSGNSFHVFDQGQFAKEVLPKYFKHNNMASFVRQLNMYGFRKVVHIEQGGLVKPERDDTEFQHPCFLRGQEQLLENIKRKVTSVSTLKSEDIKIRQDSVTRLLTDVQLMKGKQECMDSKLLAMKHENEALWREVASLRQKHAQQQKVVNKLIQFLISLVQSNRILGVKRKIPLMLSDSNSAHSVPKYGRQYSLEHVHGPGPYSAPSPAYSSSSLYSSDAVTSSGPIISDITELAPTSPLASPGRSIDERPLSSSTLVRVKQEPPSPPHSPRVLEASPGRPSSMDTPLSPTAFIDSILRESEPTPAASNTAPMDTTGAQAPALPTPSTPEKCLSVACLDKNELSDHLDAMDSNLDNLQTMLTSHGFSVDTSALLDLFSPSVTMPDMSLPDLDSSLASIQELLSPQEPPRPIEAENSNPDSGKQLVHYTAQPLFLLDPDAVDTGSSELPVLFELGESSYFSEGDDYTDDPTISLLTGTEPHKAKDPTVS
# cells = type: functional
# [6] = Luminescence Cell-Based Dose Retest to Confirm Inhibitors of Cancer Stem Cells. [Related pubchem assays (depositor defined):AID2717, AID2721]; type: functional; conditions: Homo sapiens
# [7] = Trypanosoma cruzi growth suppression in host cells – NIH3T3 host cells, beta-gal luminescence, confirmation (AID 2044); type: functional, cell-based;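 also: intracellular parasites grown in NIH/3T3 mouse fibroblasts as host cells; luminescent beta-galactosidase reporter signal from transgenic T. cruzi replicating inside host cells; inhibitors lower the luminescence signal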
# [8] = NIH3T3 cell viability loss – ATP luminescence, mouse fibroblasts, counter-screen, dose response (AID 2010); type: functional, cell-based;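 also: cells exposed to compound for about 90 hours before reading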
# Sequence of Cytochrome P450 2C19 (P33261 whole entry): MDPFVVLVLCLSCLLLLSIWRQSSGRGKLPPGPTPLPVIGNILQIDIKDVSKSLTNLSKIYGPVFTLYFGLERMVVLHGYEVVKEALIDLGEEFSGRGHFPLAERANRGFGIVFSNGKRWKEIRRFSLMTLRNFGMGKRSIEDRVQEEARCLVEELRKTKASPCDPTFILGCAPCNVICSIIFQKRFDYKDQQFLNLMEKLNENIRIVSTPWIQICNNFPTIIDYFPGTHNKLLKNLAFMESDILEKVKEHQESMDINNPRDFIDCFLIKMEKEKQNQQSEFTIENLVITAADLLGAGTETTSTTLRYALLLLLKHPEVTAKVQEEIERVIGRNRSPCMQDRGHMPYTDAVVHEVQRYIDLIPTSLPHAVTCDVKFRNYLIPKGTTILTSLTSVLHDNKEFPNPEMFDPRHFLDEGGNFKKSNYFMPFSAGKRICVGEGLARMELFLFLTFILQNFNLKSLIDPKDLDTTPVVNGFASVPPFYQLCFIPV
structure (smiles),measurement,setting,value
O=C(Cn1cc(C(F)(F)F)ccc1=O)N1CCN(S(=O)(=O)c2ccccc2)CC1,AC50,Cytochrome P450 2C19,31.6 µM (inconclusive)
same,AC50,Cytochrome P450 1A2,39.8 µM (inconclusive)
same,AC50,Cytochrome P450 2D6,11.2 µM (inconclusive)
COc1cc2sc3ccc(C#CC4(O)CCCCC4)cc3c(=O)c2cc1OC,EC50,[1],4.69 µM (active)
same,EC50,[2],2.35 µM (active)
N=C(NOC(=O)c1ccc(Cl)cc1Cl)c1ccccn1,EC50,[1],3.11 µM (active)
same,EC50,[2],1.05 µM (active)
same,AC50,INS1,30 µM (active)
Cc1cccc(NC(=O)C2CCCN(C(=O)NC3CCCCC3)C2)c1C (centres undefined),EC50,[1],> 112 µM (not active)
same,EC50,[2],> 112 µM (not active)
COc1ccc(CN=C(S)NNC(=O)c2cc3ccccc3o2)cc1,EC50,[1],> 112 µM (not active)
same,EC50,[2],> 112 µM (not active)
CCOc1c2ccc(C(=O)N[C@H](C)C3CCCCC3)cc2nn1CC,AC50,Cytochrome P450 2C19,28.2 µM (inconclusive)
same,AC50,Cytochrome P450 2C9,14.1 µM (inconclusive)
same,AC50,Cytochrome P450 3A4,25.1 µM (inconclusive)
same,AC50,Cytochrome P450 1A2,12.6 µM (inconclusive)
same,AC50,Cytochrome P450 2D6,10 µM (inconclusive)
COc1ccc(O[C@H]2C=C[C@@H](c3ccccc3)O[C@H]2CO/N=C2/[C@H]3O[C@@H]3[C@@H](O)[C@H]3[C@H]2CCn2c(=O)n(-c4ccccc4)c(=O)n23)cc1,AC50,Cytochrome P450 2C9,2 µM (inconclusive)
same,AC50,Cytochrome P450 2D6,3.98 µM (inconclusive)
COc1cccc(Oc2ccc(OC)cc2C(=O)O)c1,EC50,[3],> 53 µM (inactive)
same,IC50,[4],> 47.1 µM (inactive)
CCN(CC(=O)Nc1ccccc1OC)C(=O)Cn1cnc2ccccc2c1=O,EC50,[1],> 112 µM (not active)
same,EC50,[2],> 112 µM (not active)
CC(Oc1ccccc1Cl)C(=O)Nc1ccc(S(=O)(=O)N2CCCC2)cc1 (centres undefined),EC50,[1],> 112 µM (not active)
same,EC50,[2],32 µM (active)
Cc1cc(C)nc(NC(=O)c2ccc(C)c([N+](=O)[O-])c2)n1,EC50,[5],> 195 µM (not active)
COc1ccc(-n2cc([N+](=O)[O-])c(=O)c3ccc(Cl)cc32)cc1,EC50,[5],> 195 µM (not active)
CC(C)Cn1c(N2CCN(C(=O)/C=C/c3ccccc3)CC2)nc2ccccc21,EC50,[5],> 195 µM (not active)
ClCCNc1nc2cc(Cl)ccc2[nH]1,AC50,Cytochrome P450 2C19,15.8 µM (inconclusive)
same,AC50,Cytochrome P450 2C9,4.47 µM (inconclusive)
same,AC50,Cytochrome P450 2D6,6.31 µM (inconclusive)
O=C(NCCc1csc(-c2ccccc2)n1)c1c(F)cccc1Cl,EC50,[3],> 53 µM (inactive)
same,IC50,[4],> 47.1 µM (inactive)
O=C(Nc1ccc(Cl)c(Cl)c1)N1CCC(N2CCCCC2)CC1,AC50,Cytochrome P450 2C19,39.8 µM (inconclusive)
same,AC50,Cytochrome P450 3A4,22.4 µM (inconclusive)
same,AC50,Cytochrome P450 2D6,10 µM (inconclusive)
Cc1cc(NC(=O)c2c(Cl)cccc2Cl)no1,EC50,[1],> 112 µM (not active)
same,EC50,[2],> 112 µM (not active)
Nc1nc(O)cc(Nc2ccccc2Cl)n1,EC50,[3],> 53 µM (inactive)
same,IC50,[4],> 47.1 µM (inactive)
O=C(NCC1CCCO1)C1c2ccccc2C(=O)N1Cc1ccc2c(c1)OCO2 (centres undefined),AC50,Cytochrome P450 2C9,11.2 µM (inconclusive)
same,AC50,Cytochrome P450 1A2,15.8 µM (inconclusive)
same,AC50,Cytochrome P450 2D6,15.8 µM (inconclusive)
O=C(OCn1nnc2ccccc2c1=O)C1CCCCC1,IC50,cells,6.75 µM (active)
CCSc1nnc([C@@H](N)Cc2c[nH]c3ccccc23)o1,AC50,Cytochrome P450 1A2,17.8 µM (inconclusive)
same,AC50,Cytochrome P450 2D6,12.6 µM (inconclusive)
CC1COc2ccccc2N1C(=O)c1ccc(F)cc1 (centres undefined),EC50,[5],> 195 µM (not active)
O=C(Nc1ccccn1)c1ccc(C(=O)c2ccccc2)cc1,IC50,cells,32.6 µM (active)
O=C(O)/C=C/C(=O)Nc1cc(F)ccc1F,EC50,[5],35.9 µM (active)
CCOC(=O)c1c(C)[nH]c(C(=O)C(C)OC(=O)c2oc3ccccc3c2COC)c1C (centres undefined),EC50,[1],5.48 µM (active)
same,EC50,[2],> 112 µM (not active)
CCOC(=S)SCC(=O)Nc1nccs1,EC50,[1],21.6 µM (active)
same,EC50,[2],> 112 µM (not active)
COCC(C)n1c(C)cc(C(=O)CSc2nnc(Nc3ccccc3F)s2)c1C (centres undefined),AC50,Cytochrome P450 1A2,28.2 µM (inconclusive)
same,AC50,Cytochrome P450 2D6,25.1 µM (inconclusive)
CCOC(=O)c1cc(NC(=O)Nc2cc(C)ccn2)c(C)nc1C,EC50,[3],> 53 µM (inactive)
same,IC50,[4],> 47.1 µM (inactive)
SC1=NCN(CCc2ccccc2)CN1Cc1ccccc1,EC50,[3],> 53 µM (inactive)
same,IC50,[4],> 47.1 µM (inactive)
CN1CCC(O)(c2ccc(Cl)cc2)C(C(=O)c2ccc(Cl)cc2)C1 (centres undefined),IC50,cells,38.5 µM (active)
OC(c1ccccc1)(c1ccccc1)C1CCCN1 (centres undefined),AC50,Cytochrome P450 2C19,1.41 µM (inconclusive)
same,AC50,Cytochrome P450 2D6,25.1 µM (inconclusive)
Cc1ccc(NS(=O)(=O)c2ccc(Cl)c(C(=O)Nc3ccccc3-c3nc4ccccc4[nH]3)c2)cc1C,AC50,[6],0.647 µM (active)
same,EC50,[1],> 112 µM (not active)
same,EC50,[7],2.49 µM (active)
same,EC50,[2],> 112 µM (not active)
same,EC50,[8],< 6 µM (inconclusive)
CC(C)(C)NC[C@H](O)c1ccccc1Cl,AC50,Cytochrome P450 2D6,31.6 µM (inconclusive)
CC(=O)c1c(C)n(CCCOC(C)C)c2ccc(O)cc12,EC50,[5],> 195 µM (not active)
OCCOCCN1CCN(C(S)=Nc2ccccc2)CC1,EC50,[3],> 53 µM (inactive)
same,IC50,[4],> 47.1 µM (inactive)
Cc1cc(C)n2nc(CC(=O)NNC(=O)c3ccccc3Cl)nc2n1,EC50,[3],> 53 µM (inactive)
same,IC50,[4],> 47.1 µM (inactive)
CC(=O)C1=C(O)C(=O)N(Cc2ccccc2)C1c1ccc(F)cc1 (centres undefined),EC50,[3],> 53 µM (inactive)
same,IC50,[4],> 47.1 µM (inactive)
COc1cc(/C=N/NC(=O)c2ccccn2)ccc1OC(=O)c1cccs1,IC50,cells,10.5 µM (active)
COc1ccc(/C=N/NC(=O)c2ccncc2)cc1CN1CCOCC1,IC50,cells,0.64 µM (active)
O=C(N/N=C/c1cccc(OCc2ccccc2)c1)c1cccs1,AC50,Cytochrome P450 3A4,20 µM (inconclusive)
same,AC50,Cytochrome P450 2D6,25.1 µM (inconclusive)
